Measurements taken from patent publication US11958812B2, “3, 5-disubstituted pyridine and 3, 5-disubstituted pyridazine derivatives and pharmaceutical use of same” (MITSUBISHI TANABE PHARMA CORPORATION, priority 2018, dated 2024).

Biological target: human recombinant ATX (Homo sapiens, UniProt Q13822)
Assay: Enzyme inhibition test (choline release from LPC, Amplex UltraRed fluorescence)
Type: biochemical
Conditions: 200 μM LPC substrate, 1 hr at room temperature, read-out: Experimental Example 1 human ATX IC50
Description: [Enzyme Inhibition Test Method]
A mixture (10 μL) of substrate and a set of choline quantification reagents (200 μM LPC (1-Oleoyl-sn-glycero-3-phosphocholine Sigma #L1881), 25 μM Amplex UltraRed reagent (Invitrogen), 0.1 U/mL Peroxidase (TOYOBO), 1 U/mL Choline oxidase (TOYOBO)), prepared with assay buffer (50 mM Tris (pH 8.0), 140 mM NaCl, 5 mM KCl, 1 mM CaCl2, 1 mM MgCl2, 0.1% BSA (Albumin from bovine serum, SIGMA), 0.0025% Triton X-100), enzyme (0.4 ng/μL human recombinant ATX) (10 μL), compound-containing solution (100 nL) were dispensed to a 384-well plate, incubated at room temperature for 1 hr and the fluorescence (Ex. 525 nm/Em. 598 nm) was measured. As the standard, choline chloride was used. With a blank free of enzyme was taken as inhibitory rate 100%, and a control free of inhibitor as inhibitory rate 0%, the inhibitory rate was calculated, and IC50 value was calculated from the inhibitory activity percentage at each concentration.

Structure (SMILES): COc1ccc(-c2cnnc(COc3ccc(C(F)(F)F)cc3)c2)cc1[C@@H]1C[C@H]1C(=O)O (relative stereo) [Example 3, trans-2-[2-methoxy-5-(6-{[4-(trifluoromethyl)phenoxy]methyl}pyridazin-4-yl)phenyl]cyclopropanecarboxylic Acid]
- IC50: 35 nM

Structure (SMILES): COc1ccc(-c2cnnc(CCc3ccc(OC(F)(F)F)cc3)c2)cc1[C@@H]1C[C@H]1C(=O)O (relative stereo) [Example 4, trans-2-[2-methoxy-5-(6-{2-[4-(trifluoromethoxy)phenyl]ethyl}pyridazin-4-yl)phenyl]cyclopropanecarboxylic Acid]
- IC50: 17 nM

Structure (SMILES): C[C@@]1(C(=O)O)C[C@H]1[C@H]1CN(c2cncc(OC[C@H]3CC[C@H](C(F)(F)F)CC3)c2)CCO1 (relative stereo) [Example 20, trans-1-methyl-2-[(2S)-4-(5-{[trans-4-(trifluoromethyl)cyclohexyl]methoxy}pyridin-3-yl)morpholin-2-yl]cyclopropanecarboxylic Acid]
- IC50: 2 nM

Structure (SMILES): O=C(O)/C=C/CC1COCCN1c1cncc(OCc2ccc(OC(F)(F)F)cc2)c1 (single isomer, unassigned) [Example 22-2]
- IC50: 74 nM

Structure (SMILES): COc1ccc(-c2cnnc(OC[C@H]3CC[C@H](C(F)(F)F)CC3)c2)nc1[C@H]1C[C@]1(C)C(=O)O [Example 7-1, (1S,2S)-2-[3-methoxy-6-(6-{[trans-4-(trifluoromethyl)cyclohexyl]methoxy}pyridazin-4-yl)pyridin-2-yl]-1-methylcyclopropanecarboxylic Acid]
- IC50: 1 nM

Structure (SMILES): COc1ccc(-c2cnnc(OC[C@H]3CC[C@H](C(F)(F)F)CC3)c2)nc1[C@@H]1C[C@@]1(C)C(=O)O [Example 7-2, (1R,2R)-2-[3-methoxy-6-(6-{[trans-4-(trifluoromethyl)cyclohexyl]methoxy}pyridazin-4-yl)pyridin-2-yl]-1-methylcyclopropanecarboxylic Acid]
- IC50: 2 nM

Structure (SMILES): O=C(O)[C@H]1C[C@@H]1c1cc(-c2cnnc(OC[C@H]3CC[C@H](C(F)(F)F)CC3)c2)ccn1 [Example 10-1, (1S,2S)-2-[4-(6-{[trans-4-(trifluoromethyl)cyclohexyl]methoxy}pyridazin-4-yl)pyridin-2-yl]cyclopropanecarboxylic Acid]
- IC50: 1 nM

Structure (SMILES): O=C(O)[C@@H]1C[C@H]1c1cc(-c2cnnc(OC[C@H]3CC[C@H](C(F)(F)F)CC3)c2)ccn1 [Example 10-2, (1R,2R)-2-[4-(6-{[trans-4-(trifluoromethyl)cyclohexyl]methoxy}pyridazin-4-yl)pyridin-2-yl]cyclopropanecarboxylic Acid]
- IC50: 3 nM

Structure (SMILES): O=C(O)[C@H]1C[C@@H]1c1cc(-c2cncc(OCc3ccc(OC(F)(F)F)cc3)c2)ccn1 [Example 11-1, (1S,2S)-2-(5-{[4-(trifluoromethoxy)benzyl]oxy}-3,4′-bipyridin-2′-yl)cyclopropanecarboxylic Acid]
- IC50: 10 nM

Structure (SMILES): O=C(O)[C@@H]1C[C@H]1c1cc(-c2cncc(OCc3ccc(OC(F)(F)F)cc3)c2)ccn1 [Example 11-2, (1R,2R)-2-(5-{[4-(trifluoromethoxy)benzyl]oxy}-3,4′-bipyridin-2′-yl)cyclopropanecarboxylic Acid]
- IC50: 25 nM

Structure (SMILES): CC(C[C@H]1CN(c2cncc(OCc3ccc(OC(F)(F)F)cc3)c2)CCO1)C(=O)O (stereo partly drawn) [Example 17, 2-methyl-3-[(2S)-4-(5-{[4-(trifluoromethoxy)benzyl]oxy}pyridin-3-yl)morpholin-2-yl]propanoic Acid]
- IC50: 56 nM

Structure (SMILES): O=C(O)CC[C@H]1CN(c2cncc(CCc3ccc(OC(F)(F)F)cc3)c2)CCO1 [Example 18-1, 3-[(2S)-4-(5-{2-[4-(trifluoromethoxy)phenyl]ethyl}pyridin-3-yl)morpholin-2-yl]propanoic Acid]
- IC50: 133 nM

Structure (SMILES): O=C(O)COC[C@@H]1COCCN1c1cncc(OCc2ccc(OC(F)(F)F)cc2)c1 [Example 21, {[(3S)-4-(5-{[4-(trifluoromethoxy)benzyl]oxy}pyridin-3-yl)morpholin-3-yl]methoxy}acetic Acid]
- IC50: 56 nM

Structure (SMILES): O=C(O)COC[C@H]1CCCN1c1cncc(OCc2ccc(OC(F)(F)F)cc2)c1 [Example 24, {[(2R)-1-(5-{[4-(trifluoromethoxy)benzyl]oxy}pyridin-3-yl)pyrrolidin-2-yl]methoxy}acetic Acid]
- IC50: 13 nM

Structure (SMILES): COc1ccc(-c2cncc(/C=C\c3ccc(OC(F)(F)F)cc3)c2)nc1[C@H]1C[C@@H]1C(=O)O [Example 27]
- IC50: 56 nM

Structure (SMILES): COc1ccc(-c2cncc(/C=C/c3ccc(OC(F)(F)F)cc3)c2)nc1[C@H]1C[C@@H]1C(=O)O [Example 28]
- IC50: 4 nM

Structure (SMILES): CCOc1ccc(-c2cnnc(OCC3CCN(CC(F)(F)F)CC3)c2)cc1[C@H]1C[C@@H]1C(=O)O [Example 30]
- IC50: 2 nM

Structure (SMILES): COc1ccc(-c2cncc(OCc3cccc(Cl)c3)c2)cc1C1CC1C(=O)O (centres unmarked) [Example 32]
- IC50: 26 nM

Structure (SMILES): COc1ccc(-c2cncc(OCc3cccc(OC(F)(F)F)c3)c2)cc1C1CC1C(=O)O (centres unmarked) [Example 33]
- IC50: 57 nM

Structure (SMILES): COc1ccc(-c2cncc(OCc3ccccc3)c2)cc1C1CC1C(=O)O (centres unmarked) [Example 34]
- IC50: 121 nM

Structure (SMILES): O=C(O)c1ccc2c(c1)N(c1cncc(OC[C@H]3CC[C@H](C(F)(F)F)CC3)c1)CC2 [Example 35]
- IC50: 1 nM

Structure (SMILES): O=C(O)c1ccc2c(c1)CCN2c1cncc(OCc2ccc(OC(F)(F)F)cc2)c1 [Example 36]
- IC50: 6 nM

Structure (SMILES): O=C(O)c1ccc2c(c1)N(c1cncc(OCc3ccc(OC(F)(F)F)cc3)c1)CC2 [Example 37]
- IC50: 8 nM

Structure (SMILES): O=C(O)c1cccc2c1CCN2c1cncc(OCc2ccc(OC(F)(F)F)cc2)c1 [Example 38]
- IC50: 382 nM

Structure (SMILES): O=C(O)c1ccc2c(c1)OCCN2c1cncc(OCc2ccc(OC(F)(F)F)cc2)c1 [Example 40]
- IC50: 12 nM

Structure (SMILES): O=C(O)c1ccc2c(c1)CCCN2c1cncc(OCc2ccc(OC(F)(F)F)cc2)c1 [Example 41]
- IC50: 31 nM

Structure (SMILES): O=C(O)c1ccc(C2CN(c3cncc(OCc4ccc(OC(F)(F)F)cc4)c3)CCO2)cc1 (centres unmarked) [Example 42]
- IC50: 8 nM

Structure (SMILES): O=C(O)c1cccc(C2CN(c3cncc(OCc4ccc(OC(F)(F)F)cc4)c3)CCO2)c1 (centres unmarked) [Example 43]
- IC50: 13 nM

Structure (SMILES): O=C(O)c1ccccc1C1CN(c2cncc(OCc3ccc(OC(F)(F)F)cc3)c2)CCO1 (centres unmarked) [Example 44]
- IC50: 350 nM

Structure (SMILES): COc1ccc(C2CN(c3cncc(OC[C@H]4CC[C@H](C(F)(F)F)CC4)c3)CCO2)cc1C(=O)O (some centres unmarked) [Example 47]
- IC50: 3 nM

Structure (SMILES): COc1ccc(C2CN(c3cncc(OCC4CCN(CC(F)(F)F)CC4)c3)CCO2)cc1C(=O)O (centres unmarked) [Example 48]
- IC50: 35 nM

Structure (SMILES): O=C(O)c1ccc(C2CN(c3cncc(OC[C@H]4CC[C@H](C(F)(F)F)CC4)c3)CCO2)cn1 (some centres unmarked) [Example 49]
- IC50: 3 nM

Structure (SMILES): O=C(O)c1ccc(C2CN(c3cncc(OC[C@H]4CC[C@H](C(F)(F)F)CC4)c3)CCO2)nc1 (some centres unmarked) [Example 50]
- IC50: 10 nM

Structure (SMILES): O=C(O)c1ccnc(C2CN(c3cncc(OC[C@H]4CC[C@H](C(F)(F)F)CC4)c3)CCO2)c1 (some centres unmarked) [Example 51]
- IC50: 5 nM

Structure (SMILES): O=C(O)c1cncc(C2CN(c3cncc(OC[C@H]4CC[C@H](C(F)(F)F)CC4)c3)CCO2)c1 (some centres unmarked) [Example 52]
- IC50: 7 nM

Structure (SMILES): COc1cc(C2CN(c3cncc(OC[C@H]4CC[C@H](C(F)(F)F)CC4)c3)CCO2)cnc1C(=O)O (some centres unmarked) [Example 53]
- IC50: 1 nM

Structure (SMILES): COc1cc(C2CN(c3cncc(OC[C@H]4CC[C@H](C(F)(F)F)CC4)c3)CCO2)ncc1C(=O)O (some centres unmarked) [Example 54]
- IC50: 5 nM

Structure (SMILES): Cc1cc(C2CN(c3cncc(OC[C@H]4CC[C@H](C(F)(F)F)CC4)c3)CCO2)cnc1C(=O)O (some centres unmarked) [Example 55]
- IC50: 2 nM

Structure (SMILES): Cc1cc(C2CN(c3cncc(OC[C@H]4CC[C@H](C(F)(F)F)CC4)c3)CCO2)ncc1C(=O)O (some centres unmarked) [Example 56]
- IC50: 7 nM

Structure (SMILES): Cc1nc(C2CN(c3cncc(OC[C@H]4CC[C@H](C(F)(F)F)CC4)c3)CCO2)ccc1C(=O)O (some centres unmarked) [Example 57]
- IC50: 7 nM

Structure (SMILES): Cc1ccc(C2CN(c3cncc(OC[C@H]4CC[C@H](C(F)(F)F)CC4)c3)CCO2)nc1C(=O)O (some centres unmarked) [Example 58]
- IC50: 4 nM

Structure (SMILES): Cc1ncc(C2CN(c3cncc(OC[C@H]4CC[C@H](C(F)(F)F)CC4)c3)CCO2)cc1C(=O)O (some centres unmarked) [Example 59]
- IC50: 5 nM

Structure (SMILES): Cc1cnc(C2CN(c3cncc(OC[C@H]4CC[C@H](C(F)(F)F)CC4)c3)CCO2)cc1C(=O)O (some centres unmarked) [Example 60]
- IC50: 5 nM

Structure (SMILES): Cc1cnc(C2CN(c3cncc(OC[C@H]4CC[C@H](C(F)(F)F)CC4)c3)CCO2)cc1C(=O)O (some centres unmarked) [Example 61]
- IC50: 15 nM

Structure (SMILES): O=C(O)c1cc(C2CN(c3cncc(OC[C@H]4CC[C@H](C(F)(F)F)CC4)c3)CCO2)ncc1C(F)(F)F (some centres unmarked) [Example 62]
- IC50: 1 nM

Structure (SMILES): O=C(O)c1ccc(C2CN(c3cncc(OCc4ccc(OC(F)(F)F)cc4)c3)CCO2)nc1 (centres unmarked) [Example 63]
- IC50: 7 nM

Structure (SMILES): O=C(O)c1cncc(C2CN(c3cncc(OCc4ccc(OC(F)(F)F)cc4)c3)CCO2)c1 (centres unmarked) [Example 64]
- IC50: 1 nM

Structure (SMILES): O=C(O)c1ccnc(C2CN(c3cncc(OCc4ccc(OC(F)(F)F)cc4)c3)CCO2)c1 (centres unmarked) [Example 65]
- IC50: 16 nM

Structure (SMILES): Cc1cc(C2CN(c3cncc(OCc4ccc(OC(F)(F)F)cc4)c3)CCO2)cnc1C(=O)O (centres unmarked) [Example 66]
- IC50: 5 nM

Structure (SMILES): O=C(O)c1cccc(C2CCN(c3cncc(OCc4ccc(OC(F)(F)F)cc4)c3)C2)c1 (centres unmarked) [Example 67]
- IC50: 13 nM

Structure (SMILES): O=C(O)c1ccc(C2CCCN2c2cncc(OCc3ccc(OC(F)(F)F)cc3)c2)cc1 (centres unmarked) [Example 68]
- IC50: 14 nM

Structure (SMILES): O=C(O)CC[C@@H]1CN(c2cncc(OCc3ccc(OC(F)(F)F)cc3)c2)CCO1 [Example 69]
- IC50: 152 nM

Structure (SMILES): O=C(O)CC[C@H]1CN(c2cncc(OCC3CCN(CC(F)(F)F)CC3)c2)CCO1 [Example 70]
- IC50: 135 nM
